Consider 2 molecules from patent publication US7265111B2, “Adenosine analogues and their use as pharmaceutical agents” (Sanofi-Aventis Deutschland GmbH, priority 2002, dated 2007).

The target of one series is T1, Adenosine A2a receptor (Homo sapiens, UniProt P29274).
T1 construct: expressed in transfected cells; host or cells: CHO (Chinese hamster ovary) cells, stably double-transfected
The series is described as follows: FLIPR intracellular Ca2+ functional assay, recombinant CHO cells (A2a/Gα16). Format: cell-based. As to the method:
(§1) In Vitro Functional Assays with Recombinant Cell Lines:
(§2) Functional assays were performed by detection of agonist-induced changes in the intracellular concentration of Ca^2+ in recombinant cell lines expressing adenosine receptor subtypes using the FLIPR™ (fluorescence imaging plate reader, Molecular Devices) technology. To allow optimal signalling through Ca^2+, chinese hamster ovary (CHO) cells were stably double-transfected with cDNAs to achieve expression of suitable combinations of adenosine receptor subtypes (A1, A2a, A2b or A3) with either G-protein Gα16 or hybrid protein Gα6qi4myr (German Patent Application no. 100333532.2). Optimal signals were achieved using combinations as follows:
(§3) For assays, recombinant cells were seeded in 96-well dishes (50000 cells/well) and grown overnight. Medium was then removed and cells incubated for 1 hour in buffer containing the dye Fluo-4. After incubation with dye, cells were washed, test compound added and changes in intracellular Ca^2+ concentration measured by FLIPR. Measured values were expressed as % change relative to controls (0%: no test compound added; 100%: 1 μM Adenosine added) and used for calculation of dose-response curves and subsequent determination of EC50 values.

The next series relates to isolated rat adipocytes. The series is described as follows: Antilipolytic effect in isolated rat adipocytes. Format: cell-based. As to conditions: Adipocyte, adenosine deaminase-induced lipolysis (glycerol and free fatty acid release). The method, then:
E. Antilipolytic Effect in Isolated Rat Adipocytes:
For the preparation of isolated rat adipocytes, epididymal fat pads were obtained from male Sprague-Dawley rats (150-180 g) killed by decapitation. The main fat pad blood vessel was removed with forceps and the pads were cut into small pieces. Digestion was carried out at 37° C. in a shaking water bath by treating 1 g of sliced pad for 20 min with 3 ml of 1 mg/ml collagenase (type I, CLS, Worthington) in 1% BSA, fraction V, in KRH (Krebs-Ringer solution buffered with 25 mM HEPES/KOH, pH 7.4, containing 2.5 mM CaCl2, 2 mM glucose, 1 mM sodium pyruvate, 0.5 units/ml adenosin deaminase and 200 nM phenylisopropyl adenosine). The adipocytes were filtered through nylon mesh of sufficient pore size that no pressure other than gentle teasing with a plastic spatula was necessary for the cells to pass through. After three cycles of centrifugation (500 g, 1 min), aspiration of the infranatant. and resuspension in KRH containing 1% BSA, the cells were suspended in KRH containing 4% defatted BSA. Small aliquots of the final suspension were aspirated into capillary hematocrit tubes and centrifuged for 1 min in a Microhematocrit centrifuge in order to determine what fraction of the suspension consisted of fat cells. Results expressed as activities per unit volume of packed adipocytes (corresponding to equivalent numbers of cells) are based on this centrifugation procedure. Lipolysis was initiated by addition of a 100 μl aliquot of the adipocyte suspension to 700 μl of incubation medium [prewarmed to 37° C. and consisting of KRH, 4% defatted BSA and 1 U/ml adenosine deaminase (type I, Sigma)], with or without addition of 8 μl of a solution of the appropriate test substance in 100% DMSO (at a concentration corresponding to 100 times its concentration in the final mixture). […] Incubations were performed in 5 ml polypropylene vials agitated in a shaking water bath (140 cycles/min, amplitude 4.5 cm) at 37° C. for 20, 40, and 60 min. The incubation was terminated by addition of 200 μl of 50 mM EDTA buffered to pH 7.4 with Tris. For the glycerol determination, the whole mixture was mixed rapidly and homogenized with a ground glass pestle in a 1 ml ground glass homogenizing tube (10 pulses). The homogenate was transferred immediately to a 1.5 ml Eppendorf cup precooled to 4° C., after which the extracts were maintained at 4° C. The homogenate was then centrifuged (10,000 g, 15 min) and the infranatant below the fat cake removed with a glass Pasteur pipette. taking care not to aspirate the membrane pellet. and transferred to another Eppendorf cup. 300 μl aliquots of the infranatant were added to 300 μl volumes of 10% (w/v) HClO4. The precipitate was in each case removed by centrifugation (10,000 g, 2 min) and the supernatant neutralized with 20% (w/v) KOH, followed by addition of 50 μl of 1 M Tris/HCl, pH 7.4, A 50 μl sample was then incubated (5 min, 37° C.) with 1 ml of 0.1 M HEPES/KOH, pH 7.5, containing 2 mM ATP, 0.5 mM 4-aminoantipyrine, 1 mM EDTA, 0.5 U glycerol kinase, 4 U glycerol-3-phosphate oxidase, 2 U peroxidase, 2.7 mM p-chlorophenol, 0.04% Triton X-100 and 2 mM MgSO4.7H2O, and the glycerol content determined from the absorbance at 505 nm. For the determination of free fatty acids, 300 μl aliquots of the incubation mixture were added to 3 ml of chloroform/heptane (1:1 v/v) containing 2% (v/v) methanol. and the liberated free fatty acids determined with copper reagent and bathocuproine. The inhibitory activities of the cyclipostins were calculated from the combined results (glycerol and free fatty acid release) by plotting the log of the dose against the percent response (with the adenosine deaminase-induced lipolysis set at 100%). Data in the linear portion of the log (dose)-percent response curves were analyzed using parallel-line bioassay techniques.

Another series addresses T2, Adenosine A3 receptor (Homo sapiens, UniProt P0DMS8).
T2 construct: expressed in transfected cells; host or cells: CHO (Chinese hamster ovary) cells, stably double-transfected
T2 sequence (P0DMS8 1-318): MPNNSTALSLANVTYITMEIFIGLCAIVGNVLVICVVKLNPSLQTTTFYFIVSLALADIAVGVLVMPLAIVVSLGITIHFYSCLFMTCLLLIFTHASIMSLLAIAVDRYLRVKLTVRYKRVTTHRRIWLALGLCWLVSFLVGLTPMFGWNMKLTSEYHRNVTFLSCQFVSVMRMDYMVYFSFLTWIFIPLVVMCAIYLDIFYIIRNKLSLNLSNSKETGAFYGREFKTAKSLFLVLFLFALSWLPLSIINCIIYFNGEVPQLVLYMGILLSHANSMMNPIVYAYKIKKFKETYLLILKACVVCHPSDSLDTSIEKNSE
Description: FLIPR intracellular Ca2+ functional assay, recombinant CHO cells (A3/Gα6qi4myr). The series is classed as cell-based. The note with it: read-out: EC50 values (agonist activity at adenosine receptors) A3. As to the method: as §1, §2, §3

A further series concerns the target T3, Adenosine A1 receptor (Homo sapiens, UniProt P30542).
T3 construct: expressed in transfected cells; host or cells: CHO (Chinese hamster ovary) cells, stably double-transfected
T3 sequence (P30542 1-326): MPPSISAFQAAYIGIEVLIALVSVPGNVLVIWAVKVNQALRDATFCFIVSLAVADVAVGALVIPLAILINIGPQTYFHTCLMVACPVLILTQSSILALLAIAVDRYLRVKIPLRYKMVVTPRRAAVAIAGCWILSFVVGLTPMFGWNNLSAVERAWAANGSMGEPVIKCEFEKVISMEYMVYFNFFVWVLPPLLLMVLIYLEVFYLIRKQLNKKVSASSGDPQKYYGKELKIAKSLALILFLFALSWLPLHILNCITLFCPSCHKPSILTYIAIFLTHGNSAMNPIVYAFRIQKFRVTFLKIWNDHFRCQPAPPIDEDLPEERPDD
Description: FLIPR intracellular Ca2+ functional assay, recombinant CHO cells (A1/Gα6qi4myr). As to conditions: read-out: EC50 values (agonist activity at adenosine receptors) A1. The series is classed as cell-based. The method, then: as §1, §2, §3

The test system of series [1] is isolated guinea pig atrium. Description: Effect on the isolated guinea pig atrium (contractile force, heart rate). As to conditions: for Contractile force: at 30 μM; for Heart rate: at 1–100 μM. The method, then: D. Effect on the Isolated Guinea Pig Atrium:
Guinea pigs of either sex were killed by a blow on the back of the neck and exsanguinated.
Their heart was taken out and the atria removed. The preparation (atrium) was immediately transferred to Ringer solution (JT 431) which was at a temperature of 32° C. and was bubbled with a mixture of 95% O2 and 5% CO2. The composition of the solution in […] was: NaCl 9.0; KCl 0.42 CaCl2 0.24; NaHCO3 0.2; glucose 1.0. The atrium beats spontaneously with an initial tension of 500 mg. The contractile force and the heart rate was recorded with a computer program and automatically calculated (B-mon and A-mon PC programs. Fa. Jäckel. Hanau. GERMANY). After equilibration, the test compound was added to a final bath concentration. N was 4-6 per concentration.

In another series the target is T4, Adenosine A2b receptor (Homo sapiens, UniProt P29275).
T4 construct: expressed in transfected cells; host or cells: CHO (Chinese hamster ovary) cells, stably double-transfected
T4 sequence (P29275 1-332): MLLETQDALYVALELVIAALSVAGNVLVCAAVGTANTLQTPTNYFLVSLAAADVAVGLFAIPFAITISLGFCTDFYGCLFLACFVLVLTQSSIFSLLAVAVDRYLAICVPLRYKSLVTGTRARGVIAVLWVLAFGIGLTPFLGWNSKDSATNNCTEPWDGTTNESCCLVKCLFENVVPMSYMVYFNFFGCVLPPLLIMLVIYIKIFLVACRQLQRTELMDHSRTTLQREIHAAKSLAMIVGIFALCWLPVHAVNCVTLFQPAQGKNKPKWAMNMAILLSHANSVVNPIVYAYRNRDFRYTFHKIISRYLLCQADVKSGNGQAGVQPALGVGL
The series is described as follows: FLIPR intracellular Ca2+ functional assay, recombinant CHO cells (A2b/Gα16). Format: cell-based. As to the method:
as §1, §2, §3

T1 sequence (P29274 whole entry): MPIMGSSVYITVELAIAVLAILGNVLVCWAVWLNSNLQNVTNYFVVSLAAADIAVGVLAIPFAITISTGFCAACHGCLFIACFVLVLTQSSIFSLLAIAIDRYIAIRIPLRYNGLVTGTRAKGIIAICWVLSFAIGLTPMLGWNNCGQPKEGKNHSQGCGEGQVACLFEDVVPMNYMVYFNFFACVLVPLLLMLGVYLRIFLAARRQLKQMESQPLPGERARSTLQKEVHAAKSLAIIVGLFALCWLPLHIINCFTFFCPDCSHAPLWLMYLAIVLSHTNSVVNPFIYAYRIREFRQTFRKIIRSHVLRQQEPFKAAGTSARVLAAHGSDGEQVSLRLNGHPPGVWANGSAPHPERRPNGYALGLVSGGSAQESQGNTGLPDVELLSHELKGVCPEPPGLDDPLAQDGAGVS

For orientation: IC50 means the midpoint of a concentration-inhibition curve. Lower therefore signals higher potency. A word on the melting point: it is the temperature of the solid-liquid transition. As usually defined, the EC50 is the concentration giving half of the maximal effect. On to `O[C@@H]1[C@@H](CF)C[C@@H](n2cnc3c(N[C@H]4CCN(c5ccc(C(F)(F)F)cc5)C4)ncnc32)[C@@H]1O` [Example 7, (1R,2S, 3R, 5S)-3-{6-[1-(4-trifluoromethyl-phenyl-1-yl) -pyrrolidin-3(S)-ylamino]-purin-9-yl}-5-fluoromethyl-cyclopentane-1,2-diol], for which the melting point was found to be 178 °C. At Adenosine A2a receptor, the “EC50 values (agonist activity at adenosine receptors) A2A” value was “Inactive”. Further, 5 nM corresponded to half-maximal inhibition in the series with isolated rat adipocytes (IC50). For the same molecule, the EC50 on Adenosine A3 receptor was more than 50 µM. In addition, the 50% effective concentration (EC50) on Adenosine A1 receptor was 1.25 µM. In series [1], the Contractile force is reported as −1% at 30 μM and the Heart rate result is “no effect at 1–100 μM”. Also, the EC50 at Adenosine A2b receptor (read-out: EC50 values (agonist activity at adenosine receptors) A2B) was more than 30 µM.
`O[C@@H]1[C@@H](COC(F)(F)F)C[C@@H](n2cnc3c(N[C@H]4CCN(c5ccc(C(F)(F)F)cc5)C4)ncnc32)[C@@H]1O` [Example 10, (1R,2S,3R,5R)-3-{6-[1-(4-trifluoromethyl-phenyl-1-yl)-pyrrolidin-3(S)-ylamino]-purin-9-yl}-5-trifluoromethoxymethyl-cyclopentane-1,2-diol] displayed a melting point of 153 °C. The “EC50 values (agonist activity at adenosine receptors) A2A” value at Adenosine A2a receptor is recorded as “Inactive”. Also, in the series on isolated rat adipocytes, inhibition was half-maximal at 100 nM (IC50). Besides, at Adenosine A3 receptor, the EC50 is more than 50 µM. Further, the EC50 on Adenosine A1 receptor amounted to 15.4 µM. In series [1], the Contractile force result is recorded as “+3% at 30 μM” and the Heart rate result is “no effect at 1–100 μM”. For the same molecule, the “EC50 values (agonist activity at adenosine receptors) A2B” value on Adenosine A2b receptor is “inactive”.
